{
  "source": "patent US20080033010A1",
  "about": "“Combination therapy of erdosteine and beta-2 agonists for treating respiratory pathologies characterized by non reversible or partially reversible airway obstruction” (EDMOND PHARMA s.r.l., priority 2006, published 2008)",
  "test_system": "newly diagnosed COPD subjects",
  "assay": "Test of bronchial reversibility with salbutamol (spirometry, FEV1) before and after 4 and 10 days of erdosteine therapy, double-blind against placebo",
  "assay_type": "in vivo, humans",
  "experimental": "This effect has been found in a trial utilizing the test of bronchial reversibility with salbutamol before and after 4 and 10 days of therapy with erdosteine at the dose of 900 mg/day, that is the maximum dosage presently approved in humans. The standard protocol has been used: spirometry was performed before and 15-20 minutes after the administration of […] of salbutamol with a metered inhaler. For reducing the bias, the study was double-blind against placebo and the patients selected were newly diagnosed COPD subjects never treated with −2 agonists. 7 patients were treated with erdosteine and 7 with placebo in a random order. At baseline, all the patients had only a partial reversibility (mean 2.5%) of bronchial obstruction calculated with the FEV1 (the absolute values were 1.5 liters before salbutamol and 1.537 liters after salbutamol), thus fully meeting the COPD definition. When the test was repeated at Day 4 of therapy, the reversibility of bronchial obstruction in the placebo group was not different from the baseline values (mean increase of FEV1: 0.9%), while in the erdosteine group there was a significant and unexpected increase of post-salbutamol FEV1 values in all the patients (mean increase of FEV1: 7.1%).",
  "key": {"[1]": {"conditions": "Patient #1, after 4 days of erdosteine therapy"}, "[2]": {"conditions": "Patient #1, after 10 days of erdosteine therapy"}, "[3]": {"conditions": "Patient #4, after 4 days of erdosteine therapy"}, "[4]": {"conditions": "Patient #4, after 10 days of erdosteine therapy"}, "[5]": {"conditions": "Patient #4, before therapy (baseline)"}, "[6]": {"conditions": "baseline, all the patients, before therapy"}},
  "data": [
    {"molecule": "O=C(O)CSCC(=O)NC1CCSC1=O", "note": "(centres unmarked) [erdosteine]", "values": [
      {"measurement": "FEV1 post salbutamol", "setting": "[1]", "result": 2.05},
      {"measurement": "FEV1 pre salbutamol", "setting": "[1]", "result": 1.85},
      {"measurement": "increase of FEV1 post vs pre salbutamol", "setting": "[1]", "result": "+10.8%"},
      {"measurement": "FEV1 post salbutamol", "setting": "[2]", "result": 2.13},
      {"measurement": "FEV1 pre-salbutamol", "setting": "[2]", "result": 1.93},
      {"measurement": "increase of FEV1 post vs pre salbutamol", "setting": "[2]", "result": "+9.4%"},
      {"measurement": "FEV1 post salbutamol", "setting": "Patient #1, before therapy (baseline)", "result": 1.81},
      {"measurement": "FEV1 pre-salbutamol", "setting": "Patient #1, before therapy (baseline) (entry two)", "result": 1.81},
      {"measurement": "FEV1 pre-salbutamol", "setting": "Patient #4 (person one), before therapy (baseline)", "result": 1.19},
      {"measurement": "FEV1 post salbutamol", "setting": "[3]", "result": 1.96},
      {"measurement": "FEV1 pre salbutamol", "setting": "[3]", "result": 1.74},
      {"measurement": "increase of FEV1 post vs pre salbutamol", "setting": "[3]", "result": "+12.6%"},
      {"measurement": "FEV1 post salbutamol", "setting": "[4]", "result": 1.92},
      {"measurement": "FEV1 pre-salbutamol", "setting": "[4]", "result": 1.69},
      {"measurement": "increase of FEV1 post vs pre salbutamol", "setting": "[4]", "result": "+13%"},
      {"measurement": "FEV1 post salbutamol", "setting": "[5]", "result": 1.26},
      {"measurement": "increase of FEV1 post vs pre salbutamol", "setting": "[5]", "result": "+5.9%"},
      {"measurement": "reversal of the bronchial obstruction", "setting": "erdosteine administered with beta agonists vs beta agonist alone", "result": "much more evident than that obtained with the beta agonist alone"},
      {"measurement": "mean increase of FEV1 (reversibility of bronchial obstruction, post-salbutamol)", "setting": "erdosteine group (7 patients), Day 4 of therapy, erdosteine 900 mg/day, spirometry 15-20 minutes after salbutamol", "result": 7.1, "unit": "%"},
      {"measurement": "mean increase of FEV1 (reversibility of bronchial obstruction, post-salbutamol)", "setting": "erdosteine group, final control at Day 10, erdosteine 900 mg/day", "result": 10.3, "unit": "%"}
    ]},
    {"molecule": "CC(C)(C)NCC(O)c1ccc(O)c(CO)c1", "note": "(centres unmarked) [salbutamol]", "values": [
      {"measurement": "partial reversibility of bronchial obstruction calculated with the FEV1 (mean)", "setting": "baseline, all the patients, before erdosteine or placebo therapy, salbutamol alone", "result": 2.5, "unit": "%"},
      {"measurement": "FEV1 absolute value after salbutamol", "setting": "[6]", "result": 1.537, "unit": "L"},
      {"measurement": "FEV1 absolute value before salbutamol", "setting": "[6]", "result": 1.5, "unit": "L"}
    ]}
  ]
}
